Assay results from patent US7910752B2, “Anticancer compound, intermediate therefor, and processes for producing these” (Taheebo Japan Co., Ltd., priority 2005, dated 2011).
Like-named read-outs stand apart in the source and are kept apart here.

What was measured:
Type in all cases: cell-based
[1] = test system: Human Skin Normal Cells (Cell System Fb cells); assay: Cytotoxicity assay for human skin normal cells, trypan blue; details: for Viability %: human skin normal cells, 3 days
Protocol: (§1) Each human normal cells are preliminarily seeded in 35 mm petri dishes containing Dulbecco's modified Eagle medium (DMEM) containing 20% of fetal bovine serum (FBS) in a concentration of 1×10^5/ml. The resulting cells are incubated at 36° C. for 1 day under 5% CO2, and cells are confirmed to be stuck at the bottom of the petri dishes. A racemate, α-isomer and β-isomer are each dissolved in DMSO to give solutions in concentrations of 0.5 mM, 0.05 mM, 0.005 mM and 0.0005 mM, 2 μL each of which are added to each cells. The resulting cells are incubated at 36° C. for 3 days, and viable cells are counted by using 0.25% trypan blue and viabilities are calculated. A commercially-available anticancer agent mitomycin is also examined as a control in the test against human skin normal cells, and the results are also shown in TABLE 6.

[2] = test system: Human Hepatic Normal Cells (Cell Systems Hc Cells); assay: Cytotoxicity assay for human hepatic normal cells, trypan blue; details: 3 days
Protocol: as §1

[3] = test system: A-549 cells (Lung cancer cells); assay: Antitumor activity against A-549 cells, viable cell count; details: Homo sapiens, A549, 72 h
Protocol: (§2) PC-3 cells obtained in a similar manner in the above (1) are divided into three groups, to the first group of which is added (±)-2-(1-hydroxyethyl)-5-hydroxynaphtho[2,3-b]furan-4,9-dione (racemate) in concentrations of 0.5 mM, 0.05 mM, 0.005 mM and 0.0005 mM, to the second group of which is added an unnatural type 2-(1-hydroxyethyl)-5-hydroxynaphtho[2,3-b]furan-4,9-dione (α-isomer) in concentrations of 0.5 mM, 0.05 mM, 0.005 mM and 0.0005 mM, to the third group of which is added a natural type 2-(1-hydroxyethyl)-5-hydroxynaphtho[2,3-b]furan-4,9-dione (β-isomer) in concentrations of 0.5 mM, 0.05 mM, 0.005 mM and 0.0005 mM, and to the fourth group of which is added mitomycin as a control in concentrations of 0.5 mM, 0.05 mM, 0.005 mM and 0.0005 mM. These groups are incubated at 36° C. for 3 days, and viable cells are counted and viability is calculated.
Antitumor activity is examined on A-549 cells in a similar manner as in the above (2).

PC-3 cells = assay: Antitumor activity against PC-3 cells (2), viable cell count; details: Homo sapiens
Protocol: (§3) PC-3 cells (manufactured by Department of Laboratory Products of Dainippon Pharm. Co. Ltd.) are preliminarily seeded in 35 mm petri dishes containing Dulbecco's modified Eagle medium (DMEM) containing 20% of fetal bovine serum (FBS) in a concentration of 1×10^5/ml. The resulting cells are incubated at 36° C. for 1 day under 5% CO2, and cells are confirmed to be stuck at the bottom of the petri dishes. The resulting PC-3 cells are divided into […], to the first group of which is added (±)-2-(1-hydroxyethyl)-5-hydroxynaphtho[2,3-b]furan-4,9-dione (racemate) in concentrations of 0.5 mM, 0.05 mM and 0.005 mM, and to the second group of which is added adriamycin (Wakenyaku Co. Ltd.) as a control in concentrations of 0.5 mM, 0.05 mM and 0.005 mM. These groups are incubated at 36° C. for 3 days, and viable cells are counted and viability is calculated.
as §2

[4] = test system: Human Intestinal Normal Cells (Cell Systems IE Cells); assay: Cytotoxicity assay for human intestinal normal cells, trypan blue; details: 3 days
Protocol: as §1

[5] = test system: Human Lung Normal Cells (MRC-5); assay: Cytotoxicity assay for human lung normal cells, trypan blue; details: 3 days
Protocol: as §1

[6] = test system: MCF-7 cells (Breast cancer cells); assay: Antitumor activity against MCF-7 cells, viable cell count; details: Homo sapiens, MCF7, 72 h
Protocol: as §2
Antitumor activity is examined on MCF-7 cells in a similar manner as in the above (2).

[7] = test system: PC-3 cells (Prostate cancer cells); assay: Antitumor activity against PC-3 cells (1), viable cell count; details: Homo sapiens, PC-3, 72 h
Protocol: as §3

Row | Structure (SMILES) | Viability % ([1]; 0.0005 mM) | Viability % ([1]; 0.005 mM) | Viability % ([1]; 0.05 mM) | Viability % ([1]; 0.5 mM) | Viability % ([2]; 0.0005 mM) | Viability % ([2]; 0.005 mM) | Viability % ([2]; 0.05 mM) | Viability % ([2]; 0.5 mM) | viability at 0.5 µM [3] | viability at 5 µM [3] | viability at 50 µM [3] | viability at 500 µM [3] | viability at 0.5 µM (PC-3 cells; PC-3, 72 h) | viability at 5 µM (PC-3 cells; PC-3, 72 h) | viability at 50 µM (PC-3 cells; PC-3, 72 h) | viability at 500 µM (PC-3 cells; PC-3, 72 h) | Viability % ([4]; 0.0005 mM) | Viability % ([4]; 0.005 mM) | Viability % ([4]; 0.05 mM) | Viability % ([4]; 0.5 mM) | other results
1 | CC(O)c1cc2c(o1)C(=O)c1cccc(O)c1C2=O (single isomer, unassigned; isomer 2) [β-Isomer, 2-(1-hydroxyethyl)-5-hydroxynaphtho[2,3-b]furan-4,9-dione] | 100% | 50% | 20% | 10% | 100% | 50% | 20% | 10% | 60% | 30% | 10% | 0% | 40% | 10% | 0% | 0% | 100% | 70% | 50% | 30% | Viability % ([5]; 0.0005 mM): 100%; Viability % ([5]; 0.005 mM): 70%; Viability % ([5]; 0.05 mM): 40%; Viability % ([5]; 0.5 mM): 20%; viability at 0.5 µM [6]: 70%; viability at 5 µM [6]: 50%; viability at 50 µM [6]: 20%; viability at 500 µM [6]: 0%
2 | CC(O)c1cc2c(o1)C(=O)c1cccc(O)c1C2=O (single isomer, unassigned; isomer 2) [α-Isomer, 2-(1-hydroxyethyl)-5-hydroxynaphtho[2,3-b]furan-4,9-dione] | 100% | 70% | 40% | 30% | 100% | 70% | 40% | 20% | 70% | 40% | 10% | 0% | 60% | 30% | 0% | 0% | 100% | 80% | 60% | 40% | Viability % ([5]; 0.0005 mM): 100%; Viability % ([5]; 0.005 mM): 80%; Viability % ([5]; 0.05 mM): 50%; Viability % ([5]; 0.5 mM): 30%; viability at 0.5 µM [6]: 90%; viability at 5 µM [6]: 60%; viability at 50 µM [6]: 30%; viability at 500 µM [6]: 0%
3 | CO[C@@]12[C@H](COC(N)=O)C3=C(C(=O)C(C)=C(N)C3=O)N1C[C@@H]1N[C@@H]12 [Mitomycin, mitomycin, reference compound] | 60% | 30% | 0% | 0% |  |  |  |  |  |  |  |  |  |  |  |  |  |  |  |  | toxicity to normal cells ([1]; summary in words of TABLE 6): very strong toxicity; viability at 0.5 µM ([3]; A-549 cells, 0.0005 mM, 3 days, read-out: Viability %): 50%; viability at 5 µM ([3]; A-549 cells, 0.005 mM, 3 days, read-out: Viability %): 10%; viability at 50 µM ([3]; A-549 cells, 0.05 mM, 3 days, read-out: Viability %): 0%; viability at 500 µM ([3]; A-549 cells, 0.5 mM, 3 days, read-out: Viability %): 0%; viability at 0.5 µM (PC-3 cells; 72 h, PC-3 cells, 0.0005 mM, 3 days, read-out: Viability %): 40%; viability at 5 µM (PC-3 cells; 72 h, PC-3 cells, 0.005 mM, 3 days, read-out: Viability %): 10%; viability at 50 µM (PC-3 cells; 72 h, PC-3 cells, 0.05 mM, 3 days, read-out: Viability %): 0%; viability at 500 µM (PC-3 cells; 72 h, PC-3 cells, 0.5 mM, 3 days, read-out: Viability %): 0%; viability at 0.5 µM ([6]; MCF-7 cells, 0.0005 mM, 3 days, read-out: Viability %): 60%; viability at 5 µM ([6]; MCF-7 cells, 0.005 mM, 3 days, read-out: Viability %): 30%; viability at 50 µM ([6]; MCF-7 cells, 0.05 mM, 3 days, read-out: Viability %): 10%; viability at 500 µM ([6]; MCF-7 cells, 0.5 mM, 3 days, read-out: Viability %): 0%
4 | CC(O)c1cc2c(o1)C(=O)c1cccc(O)c1C2=O (racemic) [Racemate, (±)-2-(1-hydroxyethyl)-5-hydroxynaphtho[2,3-b]furan-4,9-dione] | 100% | 80% | 50% | 20% | 100% | 80% | 60% | 30% | 70% | 50% | 10% | 0% | 50% | 30% | 0% | 0% | 100% | 80% | 60% | 40% | viability at 5 µM [7]: 50%; viability at 50 µM [7]: 0%; viability at 500 µM [7]: 0%; Viability % ([5]; 0.0005 mM): 100%; Viability % ([5]; 0.005 mM): 80%; Viability % ([5]; 0.05 mM): 60%; Viability % ([5]; 0.5 mM): 30%; viability at 0.5 µM [6]: 90%; viability at 5 µM [6]: 50%; viability at 50 µM [6]: 20%; viability at 500 µM [6]: 0%
5 | COc1cccc2c1C(=O)c1c(O)c3c(c(O)c1C2=O)C[C@@](O)(C(=O)CO)C[C@@H]3O[C@H]1C[C@H](N)[C@H](O)[C@H](C)O1 [Adriamycin, adriamycin, reference compound] |  |  |  |  |  |  |  |  |  |  |  |  |  |  |  |  |  |  |  |  | viability at 5 µM [7]: 42%; viability at 50 µM [7]: 0%; viability at 500 µM [7]: 0%
